Reference: US6596534B1, “Utilization of osteocalcin promoter to deliver therapeutic genes to tumors” (priority 1997, dated 2003)
Entries after “also recorded” stand apart in the source; their conditions may differ.

How the values were obtained:
[1] = test system: ROS 17/2.8 osteosarcoma lung metastases; experiment: Treatment of osteosarcoma pulmonary metastasis by intravenous Ad-OC-TK; type: in vivo, nude mice
Procedure: Athymic Balb/c (nu/nu) mice at 5 to 6 weeks were purchased from Harlan Co. (Houston, Tex.). […] All mice were maintained in facilities approved by the American Association of Accreditation of Laboratory Animal Care, and all animal studies were conducted in accordance with the principles and procedures outlined in the NIH Guide for the Care and Use of Laboratory Animals.
The osteosarcoma pulmonary metastasis model was established as described above. Ad-OC-TK (5×10^8 PFU per 50 μl) was injected via tail vein twice, at day 7 and 14, after ROS 17/2.8 injection. Daily acyclovir intra peritoneal administration (40 mg/kg body weight) started at day 6 after ROS 17/2.8 tumor cell inoculation and continued for 15 days. All animals were sacrificed and examined on day 25. The lungs were removed, photographed, and weighed, and the metastatic deposits were observed under a low-powered (20×) stereo microscope. Histomorphologic observations were made in all specimens according to a standard procedure. Student's t-test was employed to analyze the statistical significance of differences among control and treatment groups.
We next tested the therapeutic efficacy of intravenous Ad-OC-TK gene therapy for the treatment of osteosarcoma lung metastases. Twenty mice bearing ROS 17/2.8 tumor lung metastases were treated with either PBS (control), Ad-OC-TK alone, ACV alone, or Ad-OC-TK plus ACV. Animals were sacrificed and analyzed on day 25 after ROS 17/2.8 inoculation. Tumor nodules on the lung surface were counted with stereo-optic magnification and the lung wet weights were measured, and all the lung specimens were subjected to histological analysis.

[2] = test system: ROS 17/2.8 osteosarcoma lung metastases; experiment: Long term survival study of mice bearing osteosarcoma lung metastases; type: in vivo, nude mice; conditions: generalized Wilcoxon test, 0.005<p<0.01 for combination
Procedure: The end-points of the long term survival study are: animal death or sacrifice upon request by animal care takers because of excessive tumor burden causing animal distress, lethargy, ruffled fur or weight loss. The survival rate of the animals was analyzed by the Kaplan-Meier survival curve. The statistical significance of this study was analyzed with the generalized Wilcoxon test.^18
Twenty-six mice were inoculated with ROS 17/2.8 tumor cells as described above. Animals received either PBS, Ad-OC-TK alone, ACV alone, or Ad-OC-TK plus ACV and survivals were compared. […] Mean survival time was 27.1±2.9 days for the control animals and 36.6±5.8 days for the Ad-OC-TK plus ACV-treated animals (FIG. 6).
FIG. 6. Survival of animals receiving Ad-OC-TK/ACV treatment. Animals bearing osteosarcoma lung metastases were treated with PBS (6 animals), ACV (6 animals), Ad-OC-TK (6 animals), or Ad-OC-TK/ACV (8 animals) as described above. The survival study end-points were animal death or sacrifice per request by animal care personnel for distress, as evidenced by lethargy, ruffled fur or weight loss.

Structure (SMILES): Nc1nc2c(ncn2COCCO)c(=O)[nH]1 [ACV, acyclovir]
- size of pulmonary metastases (histology) ([1]; day 25, compared with PBS-treated specimens): No statistical difference; also recorded: massive pulmonary metastatic tumor nodules
- number of metastatic tumor nodules on the lung surface ([1]; day 25 after ROS 17/2.8 inoculation, Ad-OC-TK 5×10^8 PFU tail vein day 7 and 14, ACV 40 mg/kg i.p. daily for 15 days, p<0.0001 for combination vs PBS): No statistical difference; also recorded: no significant differences
- lung wet weight ([1]; day 25 after ROS 17/2.8 inoculation, same regimen, p=0.0005 for combination vs PBS): no significant differences
- survival compared with controls [2]: No obvious difference in survival
